Read-outs that look alike come from different tables or passages of the source.
Legend:
Assay type in all cases: cell-based
[1] = tested on: Colletotrichum orbiculare; assay: Fungicidal activity against Colletotrichum orbiculare in the microtiterplate test
Pyricularia oryzae = assay: microbe, parasite or virus in culture; details: for Observed efficacy: single compound
Septoria tritici = assay: Fungicidal activity against Septoria tritici, micro titer plate (MTP) test; details: for inhibition of growth at […] / inhibition of growth at 1 ppm / Observed efficacy / inhibition of growth at 4 ppm: Table V.4, component B alone
Botrytis cinerea = assay: Fungicidal activity against Botrytis cinerea, micro titer plate (MTP) test; details: component B alone; for inhibition of growth at […] / inhibition of growth at 1 ppm: Botrytis cinerea, 168 h, read-out: Observed efficacy
[2] = Pyricularia oryzae, 168 h, read-out: Observed efficacy
[3] = Colletotrichum orbiculare, 0.063 ppm, read-out: Observed efficacy
[4] = Colletotrichum orbiculare, 0.25 ppm, read-out: Observed efficacy
[5] = Zymoseptoria tritici, 168 h, 0.016 ppm, read-out: Observed efficacy
[6] = Zymoseptoria tritici, 168 h, 0.063 ppm, read-out: Observed efficacy
[7] = Colletotrichum orbiculare, 1 ppm, read-out: Observed efficacy
[8] = Zymoseptoria tritici, 168 h, 0.25 ppm, read-out: Observed efficacy
[9] = Zymoseptoria tritici, 168 h, 1 ppm, read-out: Observed efficacy
[10] = Colletotrichum orbiculare, read-out: Observed efficacy
[11] = Zymoseptoria tritici, 168 h, 4 ppm, read-out: Observed efficacy
[12] = Colletotrichum orbiculare, 0.016 ppm, read-out: Observed efficacy

With Cn1cc(C(=O)Nc2cccc3c2[C@@H]2CC[C@H]3C2=C(Cl)Cl)c(C(F)F)n1 (racemic) [Benzovindiflupyr, benzovindiflupyr] the Observed efficacy ([1]; 0.004 ppm) was 2.

Compound Cc1cccc(-n2nnn(C)c2=O)c1COc1ccn(-c2ccc(Cl)cc2)n1 [A.1.25, 1-[2-[[1-(4-chlorophenyl)pyrazol-3-yl]oxymethyl]-3-methyl-phenyl]-4-methyl-tetrazol-5-one] has an inhibition of growth at 0.004 ppm (Pyricularia oryzae; [2]) of 4% and an inhibition of growth at 0.004 ppm (Septoria tritici; Zymoseptoria tritici, 168 h, read-out: Observed efficacy) of 3%.

Work on COc1ccnc(C(=O)NC2COC(=O)[C@H](Cc3ccccc3)[C@@H](OC(=O)C(C)C)[C@H](C)OC2=O)c1O (stereo partly drawn) [A.2.3, [(6S,7R,8R)-8-benzyl-3-[(3-hydroxy-4-methoxy-pyridine-2-carbonyl)amino]-6-methyl-4,9-dioxo-1,5-dioxonan-7-yl] 2-methylpropanoate] yielded an inhibition of growth at […] [1, 3] of 47%, an inhibition of growth at […] [1, 4] of 77% and an inhibition of growth at […] (Septoria tritici; [5]) of 52%. It also gave an inhibition of growth at […] (Botrytis cinerea; 0.25 ppm) of 0% and an inhibition of growth at 1 ppm (Botrytis cinerea; 1 ppm) of 11%.

For CCC(=O)OCOc1c(OC)ccnc1C(=O)NC1COC(=O)[C@H](Cc2ccccc2)[C@@H](OC(=O)C(C)C)[C@H](C)OC1=O (stereo partly drawn) [A.2.5, [(6S,7R,8R)-8-benzyl-3-[[4-methoxy-3-(propanoyloxymethoxy)pyridine-2-carbonyl]amino]-6-methyl-4,9-dioxo-1,5-dioxonan-7-yl] 2-methylpropanoate], the inhibition of growth at […] [1, 4] was 72%, the inhibition of growth at […] (Septoria tritici; [6]) was 33% and the inhibition of growth at 1 ppm (Botrytis cinerea; 1 ppm) was 6%.

Work on Cc1nn(C)cc1C(=O)Nc1cccc2c1C(C)CC2(C)C (stereo not drawn) [A.3.24, 1,3-dimethyl-N-(1,1,3-trimethylindan-4-yl)pyrazole-4-carboxamide] yielded an inhibition of growth at […] [1, 4] of 3%, an inhibition of growth at 1 ppm [1, 7] of 12% and an inhibition of growth at […] (Septoria tritici; [8]) of 25%. The inhibition of growth at 1 ppm (Septoria tritici; [9]) was 76% and the inhibition of growth at […] (Botrytis cinerea; 0.25 ppm) was 41%.

Compound CC1CC(C)(C)c2cccc(NC(=O)c3cccnc3C(F)F)c21 (stereo not drawn) [A.3.32, 2-(difluoromethyl)-N-(1,1,3-trimethyl-indan-4-yl)pyridine-3-carboxamide] has an inhibition of growth at 1 ppm [1, 7] of 15%, an inhibition of growth at […] (Septoria tritici; [8]) of 22% and an inhibition of growth at 1 ppm (Septoria tritici; [9]) of 70%. For the same compound, the inhibition of growth at […] (Botrytis cinerea; 0.25 ppm) was 32%.

Compound CC[C@H]1CC(C)(C)c2cccc(NC(=O)c3cccnc3C(F)F)c21 [A.3.34, 2-(difluoromethyl)-N-[(3S)3-ethyl-1,1-dimethyl-indan-4-yl]pyridine-3-carboxamide] has an inhibition of growth at 1 ppm [1, 7] of 14%, an inhibition of growth at […] (Septoria tritici; [8]) of 17% and an inhibition of growth at […] (Botrytis cinerea; 0.25 ppm) of 1%. It also gave an inhibition of growth at 1 ppm (Botrytis cinerea; 1 ppm) of 51%.

CCCCCCCCc1c(CC)nc2ncnn2c1N [Ametoctradin, ametoctradin] showed an Observed efficacy (Pyricularia oryzae; 16 ppm) of 8, an Observed efficacy (Pyricularia oryzae; 63 ppm) of 13 and an Observed efficacy ([1]; 63 ppm) of 14.

CO/C=C(/C(=O)OC)c1ccccc1Oc1cc(Oc2ccccc2C#N)ncn1 [Azoxystrobin, azoxystrobin] was tested, and the Observed efficacy ([1]; 0.004 ppm) was 1.

Compound COC(=O)C(C)N(C(=O)Cc1ccccc1)c1c(C)cccc1C (stereo not drawn) [Benalaxyl, benalaxyl] has an inhibition of growth at 1 ppm (Pyricularia oryzae; [2]) of 2%, an inhibition of growth at 4 ppm (Pyricularia oryzae; [2]) of 8% and an inhibition of growth at 4 ppm [1, 10] of 13%.

COC(=O)[C@@H](C)N(C(=O)Cc1ccccc1)c1c(C)cccc1C [Benalaxyl-M, benalaxyl-M] was tested, and the Observed efficacy (Pyricularia oryzae; 1 ppm) was 3, the Observed efficacy (Pyricularia oryzae; 4 ppm) was 12 and the Observed efficacy ([1]; 1 ppm) was 2. For the same compound, the Observed efficacy (Botrytis cinerea; 4 ppm) was 7%.

Compound O=C(Nc1ccccc1-c1ccc(Cl)cc1)c1cccnc1Cl [Boscalid, boscalid] has an inhibition of growth at 4 ppm (Pyricularia oryzae; [2]) of 5%, an inhibition of growth at […] [1, 4] of 0% and an inhibition of growth at 1 ppm [1, 7] of 0%. For the same compound, the inhibition of growth at 1 ppm (Septoria tritici; [9]) was 61%.

COC(=O)Nc1nc2ccccc2[nH]1 [Carbendazim, carbendazim] showed an inhibition of growth at […] [1, 3] of 60%.

With O=C(Cc1ccccc1)N/C(=N\OCC1CC1)c1c(C(F)(F)F)ccc(F)c1F [Cyflufenamid, cyflufenamid] the inhibition of growth at 16 ppm ([1]; Colletotrichum orbiculare, 16 ppm, read-out: Observed efficacy) was 11%.

Compound CC(C1CC1)C(O)(Cn1cncn1)c1ccc(Cl)cc1 (stereo not drawn) [Cyproconazol, cyproconazole] has an inhibition of growth at 4 ppm [1, 10] of 4%.

Work on CNC(=O)/C(=N/OC)c1ccccc1COc1cc(C)ccc1C [Dimoxystrobin, dimoxystrobin] yielded an Observed efficacy ([1]; 1 ppm) of 71 and an Observed efficacy (Botrytis cinerea; 1 ppm) of 14%.

Compound N#Cc1sc2c(=O)c3ccccc3c(=O)c=2sc1C#N [Dithianon, dithianon] has an inhibition of growth at […] [1, 3] of 21%.

For CC1CC(C)(C)c2c(F)ccc(NC(=O)c3cn(C)nc3C(F)F)c21 (stereo not drawn) [Fluindapyr, 3-(difluoromethyl)-N-(7-fluoro-1,1,3-trimethyl-indan-4-yl)-1-methyl-pyrazole-4-carboxamide], the inhibition of growth at 1 ppm [1, 7] was 12%, the inhibition of growth at […] (Septoria tritici; [8]) was 21% and the inhibition of growth at 1 ppm (Septoria tritici; [9]) was 58%. For the same compound, the inhibition of growth at […] (Botrytis cinerea; 0.25 ppm) was 21%.

O=C(NCCc1ncc(C(F)(F)F)cc1Cl)c1ccccc1C(F)(F)F [Fluopyram, fluopyram] gave an inhibition of growth at […] [1, 4] of 15%, an inhibition of growth at […] (Septoria tritici; [6]) of 13% and an inhibition of growth at […] (Septoria tritici; [8]) of 33%.

O=c1c2cc(F)ccc2nc(-n2cncn2)n1-c1ccc(Cl)cc1Cl [Fluquinconazol, fluquinconazole] gave an inhibition of growth at […] [1, 3] of 3% and an inhibition of growth at 1 ppm [1, 7] of 12%.

Cn1cc(C(=O)Nc2ccccc2-c2cc(F)c(F)c(F)c2)c(C(F)F)n1 [Fluxapyroxad, fluxapyroxad] showed an Observed efficacy ([1]; 0.004 ppm) of 1.

For CC(C)c1ccc(Cl)cc1CN(C(=O)c1c(C(F)F)nn(C)c1F)C1CC1 [Isoflucypram, N-[(5-chloro-2-isopropyl-phenyl)methyl]-N-cyclopropyl-3-(difluoromethyl)-5 fluoro-1-methyl-pyrazole-4-carboxamide], the inhibition of growth at 1 ppm (Pyricularia oryzae; [2]) was 11%, the inhibition of growth at […] (Septoria tritici; [8]) was 61% and the inhibition of growth at 1 ppm (Septoria tritici; [9]) was 62%. For the same compound, the inhibition of growth at […] (Botrytis cinerea; 0.25 ppm) was 53%.

For CCN(C)C=Nc1cc(C)c(Oc2nc(Cc3ccc(Cl)cc3)ns2)cc1C [K.1.29, N′-[4-[[3-[(4-chorophenyl)methyl]-1,2,4-thiadiazo-5-yl]oxy]-2,5-dimethyl-phenyl]-N-ethyl-N-methyl-formamidine], the Observed efficacy (Septoria tritici; 4 ppm) was 6.

Work on CCN(C)C=Nc1cc(Br)c(OC2Cc3ccccc3C2)nc1C [K.1.30, N′-(5-bromo-6-indan-2-yloxy-2-methyl-3-pyridyl)-N-ethyl-N-methyl-formamidine] yielded an inhibition of growth at 1 ppm (Septoria tritici; [9]) of 0% and an inhibition of growth at 4 ppm (Septoria tritici; [11]) of 0%.

For CCN(C)C=Nc1cc(Br)c(OC(C)c2cc(F)cc(F)c2)nc1C (stereo not drawn) [K.1.31, N′-[5-bromo-6-[1-(3,5-difluorophenyl)ethoxy]-2-methyl-3-pyridyl]-N-ethyl-N-methyl-formamidine], the inhibition of growth at 1 ppm (Septoria tritici; [9]) was 5%, the inhibition of growth at 4 ppm (Septoria tritici; [11]) was 62% and the inhibition of growth at 1 ppm (Botrytis cinerea; 1 ppm) was 53%.

CCCCCOC(=O)Nc1cccc(CO/N=C(/c2ccccc2)c2nnnn2C)n1 [K.1.42, pentyl N-[6-[[(Z)-[(1-methyltetrazol-5-yl)-phenyl-methylene]amino]oxymethyl]-2-pyridyl]carba-mate] gave an Observed efficacy (Pyricularia oryzae; 1 ppm) of 9 and an Observed efficacy ([1]; 1 ppm) of 21.

Work on CCCOCC(C)Oc1nc(C)c(N=CN(C)CC)cc1Br (stereo not drawn) [K.1.54, N′-[5-bromo-2-methyl-6-(1-methyl-2-propoxy-ethoxy)-3-pyridyl]-N-ethyl-N-methyl-formamidine] yielded an inhibition of growth at 1 ppm (Pyricularia oryzae; [2]) of 19% and an inhibition of growth at 1 ppm (Septoria tritici; [9]) of 3%.

CO/N=C(/C(=O)OC)c1ccccc1COc1ccccc1C [Kresoxim-methyl, kresoxim-methyl] showed an inhibition of growth at […] [1, 4] of 45%.

CO/N=C(/C(=O)OC)c1ccccc1COc1ccccc1C [Kresoximmethyl] gave an inhibition of growth at 1 ppm (Pyricularia oryzae; [2]) of 58% and an inhibition of growth at […] (Septoria tritici; [6]) of 41%.

CC1(C)CCC(Cc2ccc(Cl)cc2)C1(O)Cn1cncn1 (stereo not drawn) [Metconazol, metconazole] gave an inhibition of growth at […] [1, 3] of 11%.

Compound COc1cc(C)c(C(=O)c2c(OC)ccc(Br)c2C)c(OC)c1OC [Metrafenon] has an Observed efficacy (Pyricularia oryzae; 4 ppm) of 5, an Observed efficacy (Pyricularia oryzae; 16 ppm) of 21 and an Observed efficacy (Septoria tritici; 4 ppm) of 1. The Observed efficacy (Septoria tritici; 16 ppm) was 1.

COc1cc(C)c(C(=O)c2c(OC)ccc(Br)c2C)c(OC)c1OC [Metrafenone, metrafenone] showed an inhibition of growth at 4 ppm [1, 10] of 14%.

Work on CC(C)CC(C)c1sccc1NC(=O)c1cn(C)nc1C(F)(F)F (stereo not drawn) [Penthiopyrad, penthiopyrad] yielded an inhibition of growth at […] [1, 4] of 8%, an inhibition of growth at […] (Septoria tritici; [6]) of 5% and an inhibition of growth at […] (Septoria tritici; [8]) of 28%.

CCCC1COC(Cn2cncn2)(c2ccc(Cl)cc2Cl)O1 (stereo not drawn) [Propiconazol, propiconazole] showed an inhibition of growth at […] [1, 12] of 3%, an inhibition of growth at […] [1, 3] of 3% and an inhibition of growth at […] [1, 4] of 15%. It also gave an inhibition of growth at […] (Septoria tritici; [6]) of 17%.

Work on OC(Cc1ccccc1Cl)(Cn1nc[nH]c1=S)C1(Cl)CC1 (stereo not drawn) [Prothioconazol, prothioconazole] yielded an inhibition of growth at […] [1, 4] of 14%.

COc1cc(C)c(C(=O)c2c(OC)ncc(Cl)c2C)c(OC)c1OC [Pyriofenon, pyriofenone] showed an Observed efficacy (Botrytis cinerea; 1 ppm) of 2%.

CC(C)(C)C(O)(CCc1ccc(Cl)cc1)Cn1cncn1 (stereo not drawn) [Tebuconazol, tebuconazole] gave an inhibition of growth at 0.0663 ppm (Pyricularia oryzae; [2]) of 4%, an inhibition of growth at […] [1, 3] of 2% and an inhibition of growth at […] [1, 4] of 14%.

Compound CON=C(C(=O)OC)c1ccccc1CON=C(C)c1cccc(C(F)(F)F)c1 [Trifloxystrobin, trifloxystrobin] has an inhibition of growth at […] [1, 12] of 9%, an inhibition of growth at […] (Septoria tritici; [5]) of 43% and an inhibition of growth at […] (Botrytis cinerea; 0.063 ppm) of 3%.

CC1(C)CCC(=Cc2ccc(Cl)cc2)C1(O)Cn1cncn1 (stereo not drawn) [Triticonazol, triticonazole] gave an inhibition of growth at 1 ppm [1, 7] of 11%.

mancozeb gave an Observed efficacy ([1]; 1 ppm) of 24 and an Observed efficacy (Septoria tritici; 1 ppm) of 9.
